{"source": "ChEMBL document CHEMBL5360524", "about": "(Bioorg Med Chem, 2022)", "key": {"Serratia marcescens [1]": {"tested_on": "Serratia marcescens", "assay": "Antibacterial activity against Serratia marcescens assessed as inhibition of bacterial growth measured after 168 hrs relative to control", "assay_type": "functional"}, "Serratia marcescens [2]": {"tested_on": "Serratia marcescens", "assay": "Antibacterial activity against Serratia marcescens assessed as inhibition of bacterial growth measured after 96 hrs relative to control", "assay_type": "functional"}}, "data": [{"smiles": "COc1cc(C=O)ccc1O", "note": "[VANILLIN]", "values": [{"measurement": "inhibition (INH)", "setting": "Serratia marcescens [1]", "value": 0.4, "unit": "%"}, {"measurement": "inhibition (INH)", "setting": "Serratia marcescens [2]", "value": 0.3, "unit": "%"}]}]}
